Patent US11214540B2, “Compositions for treating neurodegenerative diseases” (COGNITION THERAPEUTICS, INC., priority 2017, dated 2022)

How the values were obtained:
[1] = target: Sigma-2 receptors on membranes from rat cerebral cortex (Rattus norvegicus (Rat), UniProt Q5U3Y7); assay: Competitive Radioligand Binding Assay 1, Sigma-2 binding ([3H]DTG displacement with (+)pentazocine mask); details: sigma-2 receptor affinity; read-out: S2 Ki
Protocol: Using the same protocol, some compounds for which membrane trafficking data are given in Table 1 were tested for recognition of sigma-2 receptor. Certain compounds preferentially bind to the sigma-2 receptor.
For Sigma-1 binding, various concentrations of test compounds from 100 μM to 1 nM were used to displace 8 nM [3H](+)pentazocine from endogenous receptors on Jurkat cell membranes (Ganapathy M E et al. 1991, J Pharmacol. Exp. Ther. 289:251-260). 10 μM Haloperidol was used to define non-specific binding. […] (Bowen W D, et al. 1993, Mol. Neuropharmcol 3:117-126). 10 μM Haloperidol was used to define non-specific binding. Reactions were terminated by rapid filtration through Whatman GF/C filters using a Brandel 12R cell harvester followed by two washes with ice-cold buffer. Radioactivity on the dried filter discs was measured using a liquid scintillation analyzer (Tri-Carb 2900TR; PerkinElmer Life and Analytical Sciences). The displacement curves were plotted and the Ki values of the test compounds for the receptor subtypes were determined using GraphPad Prism (GraphPad Software Inc., San Diego, Calif.). The percentage specific binding was determined by dividing the difference between total bound (disintegrations per minute) and nonspecific bound (disintegrations per minute) by the total bound (disintegrations per minute).
Affinities for Sigma-1 and Sigma-2 receptors are typically obtained from published studies using cerebral tissue homogenates with [3H](+)pentazocine to measure displacement from Sigma-1 receptors and [3H] 1,3-Di-(2-tolyl)guanidine in the presence of 300 nM (+)pentazocine to measure displacement from Sigma-2 receptors.

[2] = test system: Abeta oligomer-induced membrane trafficking deficits in primary hippocampal neurons; assay: Membrane Trafficking/Exocytosis (MTT) assay, Abeta oligomer effect on neurons; type: cell-based, rat; details: membrane trafficking; read-out: EC50 Abeta;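 also: compound potency for inhibiting the Abeta oligomer effect on exocytosis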
Protocol: Compounds according to any embodiment described herein, were tested for their ability to inhibit an amyloid beta effect on the cells. The compounds generally were able to inhibit the amyloid beta effect as measured by a membrane trafficking/exocytosis assay (MTT assay). The rationale for this assay was as follows:
The present exocytosis assay was adapted for use with mature primary neuronal cultures grown for 3 weeks in vitro. See WO 2011/106785, which is incorporated herein by reference in its entirety. Abeta oligomers cause a dose-dependent decrease in the amount of intracellular vesicles (puncta) filled with reduced purple formazan as measured via image processing using a Cellomics VTI automated microscopy system. […] Increasing the amount of Abeta oligomers eventually results in overt toxicity. Thus, the concentration of neuroactive Abeta oligomers used in the assay is much lower than that causing cell death. […] When configured in this manner, the assay is able to detect compounds that inhibit nonlethal effects of Abeta oligomer whether these compounds act via disruption of oligomers, inhibition of oligomer binding to neurons, or counteraction of signal transduction mechanisms of action initiated by oligomer binding.
Primary hippocampal neurons from E18 Sprague-Dawley rat embryos were plated at optimized concentrations in 384 well plates in NB media (Invitrogen). Neurons were maintained in cultures for 3 weeks, with twice weekly feeding of NB media with N2 supplement (Invitrogen).
A test compound was added to cells at concentrations ranging from 100 uM to 0.001 nM followed by addition of vehicle or Abeta oligomer preparations (3 μM total Abeta protein concentration), and incubated for 1 to 24 hr at 37° C. in 5% CO2. MTT reagent (3-(4,5-dimethylthizaol-2yl)-2,5diphenyl tetrazolium bromide) (Roche Molecular Biochemicals) was reconstituted in phosphate buffered saline to 5 mg/mL. 10 μL of MTT labeling reagent is added to each well and incubated at 37° C. for 1 h, then imaged. Exocytosis was assessed by automated microscopy and image processing to quantify the amount of endocytosed and exocytosed formazan.
Each assay plate was formatted so that compounds are tested with and without Abeta oligomer on each plate. This design eliminates toxic or metabolically active compounds early on in the screening cascade (at the level of the primary screen). Reduced formazan was first visible in intracellular vesicles. Eventual formazan exocytosis was accelerated via Abeta oligomers.
Human amyloid peptide 1-42 was obtained from a number of commercial vendors such as California Peptide, with lot-choice contingent upon quality control analysis. Quality controls of oligomer preparations consist of Westerns to determine oligomer size ranges and relative concentrations, and the MTT assay to confirm exocytosis acceleration without toxicity. Toxicity was monitored in each image-based assay via quantification of nuclear morphology visualized with the DNA binding blue dye DAPI (Invitrogen). Nuclei that are fragmented are considered to be in late stage apoptosis (Majno and Joris '95) and the test would be rejected. Peptide lots producing unusual peptide size ranges or significant toxicity at a standard 1.5 μM concentration on neurons would also be rejected.
Data handling and analysis were accomplished by Cellomics VTI image analysis software and STORE automated database software. Because of the low dynamic range and neuronal well-to-well variability after three weeks in culture, statistical comparisons are made via pairwise Tukey-Kramer analysis to determine the significance of the separation between compound+Abeta oligomers from Abeta alone, and between compound alone from vehicle. The ability of mature primary neurons to more closely approximate the electrophysiologically mediated signal transduction network of the adult brain justifies this screening strategy. […]

log P = type: physicochemical
Method in brief: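 Ratio of un-ionized compound concentrations between octanol and water, with aqueous pH set so the un-ionized form predominates. Value given as the log of the octanol/water ratio.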

potassium channel hERG = potassium channel hERG (Homo sapiens (Human), UniProt Q12809); assay: In vitro testing for hERG inhibition; type: biochemical; details: in vitro toxicity potassium channel hERG
Protocol: In vitro testing for hERG inhibition was performed in a standard assay (See: Haverkamp W, Breithardt G, Carnm A J, Janse M J, Rosen M R, Antzelevitch C, Escande D, Franz M, Malik M, Moss A and Shah R. (2000) Eur Heat J 21 (15); 1216-31).

Sequence of potassium channel hERG (Q12809 whole entry): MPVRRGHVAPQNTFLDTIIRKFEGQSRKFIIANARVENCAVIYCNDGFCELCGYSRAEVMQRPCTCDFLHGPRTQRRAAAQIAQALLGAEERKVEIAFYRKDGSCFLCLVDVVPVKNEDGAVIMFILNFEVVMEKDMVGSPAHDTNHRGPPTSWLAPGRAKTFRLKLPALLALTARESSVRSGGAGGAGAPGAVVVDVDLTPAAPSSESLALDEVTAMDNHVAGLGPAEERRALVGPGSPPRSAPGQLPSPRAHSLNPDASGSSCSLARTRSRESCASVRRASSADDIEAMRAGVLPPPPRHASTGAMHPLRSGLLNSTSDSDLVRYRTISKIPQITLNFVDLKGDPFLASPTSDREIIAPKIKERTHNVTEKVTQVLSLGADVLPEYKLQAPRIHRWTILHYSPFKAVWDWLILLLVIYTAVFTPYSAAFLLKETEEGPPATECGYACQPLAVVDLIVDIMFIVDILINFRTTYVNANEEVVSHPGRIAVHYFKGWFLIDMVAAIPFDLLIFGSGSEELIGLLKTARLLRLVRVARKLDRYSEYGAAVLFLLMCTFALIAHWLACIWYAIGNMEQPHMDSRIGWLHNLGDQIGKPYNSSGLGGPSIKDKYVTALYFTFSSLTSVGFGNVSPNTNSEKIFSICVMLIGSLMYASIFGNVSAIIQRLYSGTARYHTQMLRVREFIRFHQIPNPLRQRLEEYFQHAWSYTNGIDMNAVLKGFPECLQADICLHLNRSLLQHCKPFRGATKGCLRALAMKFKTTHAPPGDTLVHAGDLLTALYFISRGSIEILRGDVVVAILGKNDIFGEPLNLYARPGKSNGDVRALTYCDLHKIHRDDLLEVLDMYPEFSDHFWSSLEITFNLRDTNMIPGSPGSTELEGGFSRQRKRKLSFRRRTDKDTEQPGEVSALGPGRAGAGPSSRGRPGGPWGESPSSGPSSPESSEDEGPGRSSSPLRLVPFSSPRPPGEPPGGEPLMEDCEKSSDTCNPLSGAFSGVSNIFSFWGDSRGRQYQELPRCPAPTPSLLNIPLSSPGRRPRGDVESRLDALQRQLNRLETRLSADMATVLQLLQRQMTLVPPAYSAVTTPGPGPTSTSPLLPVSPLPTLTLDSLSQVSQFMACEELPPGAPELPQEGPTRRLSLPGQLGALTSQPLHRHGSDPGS
Sequence of Sigma-2 receptors on membranes from rat cerebral cortex (Q5U3Y7 whole entry): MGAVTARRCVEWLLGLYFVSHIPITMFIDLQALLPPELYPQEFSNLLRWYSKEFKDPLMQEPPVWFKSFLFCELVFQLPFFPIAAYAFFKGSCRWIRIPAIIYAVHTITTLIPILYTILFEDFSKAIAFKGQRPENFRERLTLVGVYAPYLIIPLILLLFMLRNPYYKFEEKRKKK

Row | Structure (SMILES) | Ki [1] | EC50 [2] | log P (log P) | IC50 (potassium channel hERG)
1 | CC(C)=CC(CC(C)(C)c1ccc(C)cc1)N1CCC(C2CCOCC2)CC1 (stereo not drawn) [Compound 3] | 0.00076 µM | 0.25 µM | 6.22 | 
2 | CC(C)=CC(CC(C)(C)c1ccc(Cl)cc1)N1CCC(c2ccncc2)CC1 (stereo not drawn) [Compound 24] | 0.01 µM | 20 µM | 6.31 | 
3 | CC(C)=CC(CC(C)(C)c1ccc(Cl)cc1)N1CCC(c2ccc(S(C)(=O)=O)cc2)CC1 (stereo not drawn) [Compound 32] | 0.032 µM | 6.9 µM | 6.37 | 
4 | CC(C)=CC(CC(C)(C)c1ccc(C)cc1)N1CCC(C(C)C)CC1 (stereo not drawn) [Compound 33] | 0.033 µM | 1.92 µM | 7.04 | 
5 | CC(C)=CC(CC(C)(C)c1ccc(C)cc1)N1CCN(CC(C)C)CC1 (stereo not drawn) [Compound 45] | 0.085 µM | 2.6 µM | 6.26 | 
6 | CC(C)=CC(CC(C)(C)c1ccc(Cl)cc1)N1CCC(c2cccc(S(C)(=O)=O)c2)CC1 (stereo not drawn) [Compound 46] | 0.086 µM | 4.8 µM | 6.37 | 
7 | CC(C)=CC(CC(C)(C)c1ccc(S(C)(=O)=O)cc1)N1CCC(c2ccncc2)CC1 (stereo not drawn) [Compound 51] | 0.1 µM | 20 µM | 4.55 | 
8 | CC(C)=CC(CC(C)(C)c1ccc(C)cc1)NCC1CCCCC1 (stereo not drawn) [Compound 52] | 0.11 µM | 4.8 µM | 6.9 | 
9 | CC(C)=CC(CC(C)(C)c1ccc(C)cc1)NCc1ccc(C)cc1 (stereo not drawn) [Compound 54] | 0.12 µM | 3.2 µM | 7.02 | 
10 | CC(C)=CC(CC(C)(C)c1ccc(C)cc1)NCC1CCOCC1 (stereo not drawn) [Compound 57] | 0.15 µM | 0.73 µM | 5.21 | 
11 | CC(C)=CC(CC(C)(C)c1ccc(C)cc1)N1CCN(c2ccccc2)CC1 (stereo not drawn) [Compound 60] | 0.21 µM | 1 µM | 6.91 | 
12 | CC(C)=CC(CC(C)(C)c1ccc(Cl)cc1)N1CCC(c2ccnc(N3CCCC3)c2)CC1 (stereo not drawn) [Compound 63] | 0.24 µM | 1.5 µM | 7.42 | 
13 | CC(C)=CC(CC(C)(C)c1ccc(Cl)cc1)N1CCC(c2ccnc(N3CCOCC3)c2)CC1 (stereo not drawn) [Compound 67] | 0.3 µM | 13 µM | 6.8 | 
14 | COc1ccc(C(C)(C)CC(C=C(C)C)NCC2CCOCC2)cc1 (stereo not drawn) [Compound 74] | 0.43 µM | 12.9 µM | 4.54 | 
15 | CC(C)=CC(CC(C)(C)c1ccc(C)cc1)N[C@H](C)c1ccccc1 (stereo partly drawn) [Compound 80] | 1.3 µM | 0.64 µM | 6.93 | 
16 | CC(C)=CC(CC(C)(C)c1ccc(F)cc1)N1CCC(N2CCOCC2)CC1 (stereo not drawn) [Compound 126] |  | 0.3 µM | 4.61 | 7.4 µM
17 | CC(C)=CC(CC(C)(C)c1ccc(C(F)(F)F)cc1)N1CCC(N2CCCCC2)CC1 (stereo not drawn) [Compound 127] |  | 0.3 µM | 6.41 | 3.3 µM
18 | CC(C)=CC(CC(C)(C)c1ccc(C(F)(F)F)cc1)N1CCC(C)(O)CC1 (stereo not drawn) [Compound 129] |  | 1.3 µM | 5.13 | 24 µM

Row | Structure (SMILES) | Ki [1] | EC50 [2] | log P (log P) | IC50 (potassium channel hERG)
19 | CCOC1CCN(C(C=C(C)C)CC(C)(C)c2ccc(Cl)cc2)CC1 (stereo not drawn) [Compound 136] |  | 1.5 µM | 5.58 | 2.1 µM
20 | CC(C)=CC(CC(C)(C)c1ccccc1)N1CCC(O)CC1 (stereo not drawn) [Compound 201] |  | 15 µM | 3.97 | 15 µM
21 | CC(C)=CC(CC(C)(C)c1ccc(C(F)(F)F)cc1)N1CCC(O)(c2ccccc2)CC1 (stereo not drawn) [Compound 205] |  | 0.59 µM | 6.5 | 3.9 µM
22 | COCCC1(O)CCN(C(C=C(C)C)CC(C)(C)c2ccc(C(F)(F)F)cc2)CC1 (stereo not drawn) [Compound 210] |  | 0.42 µM | 4.79 | 4.4 µM
23 | CCCCC1(O)CCN(C(C=C(C)C)CC(C)(C)c2ccc(C(F)(F)F)cc2)CC1 (stereo not drawn) [Compound 212] |  | 1.8 µM | 6.54 | 27 µM
24 | CC(C)=CC(CC(C)(C)c1ccccc1)N1CCC(C)(O)CC1 (stereo not drawn) [Compound 213] |  | 6.6 µM | 4.25 | 6.4 µM
25 | COCCC1(O)CCN(C(C=C(C)C)CC(C)(C)c2ccc(Cl)cc2)CC1 (stereo not drawn) [Compound 217] |  | 4.6 µM | 4.51 | 7.7 µM
26 | CC(CC(C)(C)c1ccc(Cl)cc1)N1CCCC1CO (stereo not drawn) [Compound 229] |  | 15 µM | 4.03 | 21 µM
27 | CC(C)=CC(CC(C)(C)c1ccc(Cl)cc1)N1CC[C@H](O)C1 (stereo partly drawn) [Compound 230] |  | 10 µM | 4.52 | 16 µM
28 | CC(C)=CC(CC(C)(C)c1ccc(C(F)(F)F)cc1)N1CC[C@H](O)C1 (stereo partly drawn) [Compound 232] |  | 15 µM | 4.79 | 29 µM
29 | CC(CC(C)(C)c1ccc(C(F)(F)F)cc1)N1CC[C@H](O)C1 (stereo partly drawn) [Compound 233] |  | 0.26 µM | 3.79 | 24 µM
30 | CC(C)=CC(CC(C)(C)c1ccc(C(F)(F)F)cc1)N1CCC[C@H]1CO (stereo partly drawn) [Compound 236] |  | 15 µM | 5.31 | 20 µM
31 | COCC1CCCN1C(C)CC(C)(C)c1ccc(Cl)cc1 (stereo not drawn) [Compound 238] |  | 15 µM | 4.67 | 13 µM
32 | COC[C@@H]1CCCN1[C@@H](C=C(C)C)CC(C)(C)c1ccc(F)cc1 [Compound 244] |  | 8.5 µM | 5.22 | 4.8 µM
33 | COCC1CCCN1C(C=C(C)C)CC(C)(C)c1ccc(F)cc1 (stereo not drawn) [Compound 245] |  | > 15 µM | 5.22 | 14 µM
34 | COC[C@@H]1CCCN1[C@@H](C=C(C)C)CC(C)(C)c1ccccc1 [Compound 249] |  | 15 µM | 5.07 | 9.4 µM
35 | CC(CC(C)(C)c1ccc(Cl)cc1)N1CCC(O)C1 (stereo not drawn) [Compound 250] |  | 15 µM | 3.51 | 28 µM
36 | COCC1CCCN1C(C=C(C)C)CC(C)(C)c1ccccc1 (stereo not drawn) [Compound 252] |  | 15 µM | 5.07 | 7 µM
